ChEMBL document CHEMBL1268978, “Arylpiperazine-containing pyrimidine 4-carboxamide derivatives targeting serotonin 5-HT(2A), 5-HT(2C), and the serotonin transporter as a potential antidepressant” (Bioorg Med Chem Lett, 2010)
pIC50: −log10 of the molar value. The source made the active and inactive calls. The rule behind the calls is not given here.

Assays:
[1] = test system: Mus musculus; experiment: Antidepressant activity in mouse at 25 mg/kg, ip administered 30 mins before test by forced swimming test; type: functional, organism-based; design: dose 25 mg/kg
[2] = target: Sodium-dependent serotonin transporter (Homo sapiens, UniProt P31645); experiment: Displacement of [3H]imipramine from human recombinant SERT receptor expressed in HEK293 cells; type: cell-based
Chain of Sodium-dependent serotonin transporter (P31645 whole entry): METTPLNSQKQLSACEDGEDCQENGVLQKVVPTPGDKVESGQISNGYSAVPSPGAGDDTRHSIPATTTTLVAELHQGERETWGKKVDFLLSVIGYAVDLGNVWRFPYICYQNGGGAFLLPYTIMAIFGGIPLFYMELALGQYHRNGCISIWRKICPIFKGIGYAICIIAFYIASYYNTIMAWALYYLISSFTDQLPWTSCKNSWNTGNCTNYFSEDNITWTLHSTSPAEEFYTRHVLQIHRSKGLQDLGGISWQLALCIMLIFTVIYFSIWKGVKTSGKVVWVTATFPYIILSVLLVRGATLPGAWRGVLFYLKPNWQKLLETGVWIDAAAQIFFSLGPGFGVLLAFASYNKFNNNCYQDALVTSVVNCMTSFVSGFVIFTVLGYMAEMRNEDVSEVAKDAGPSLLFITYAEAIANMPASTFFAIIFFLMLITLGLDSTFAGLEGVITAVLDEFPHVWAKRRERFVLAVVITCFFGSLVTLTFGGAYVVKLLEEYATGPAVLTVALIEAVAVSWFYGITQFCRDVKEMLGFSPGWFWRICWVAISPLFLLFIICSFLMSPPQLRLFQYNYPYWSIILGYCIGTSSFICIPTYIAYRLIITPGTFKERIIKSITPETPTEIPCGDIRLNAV

[3] = test system: Mus musculus; experiment: Toxicity in mouse assessed as induction of hyperactivity measured for 30 mins at 25 mg/kg, ip measured by spontaneous locomotor activity assay; type: organism-based; design: dose 25 mg/kg, route intraperitoneal; conditions: in vivo, 0.5 h
[4] = target: T1, 5-hydroxytryptamine receptor 2C (Homo sapiens, UniProt P28335); experiment: Displacement of [3H]mesulergine from human recombinant 5HT2C receptor expressed in CHO-K1 cells; type: cell-based
T1 sequence (P28335 whole entry): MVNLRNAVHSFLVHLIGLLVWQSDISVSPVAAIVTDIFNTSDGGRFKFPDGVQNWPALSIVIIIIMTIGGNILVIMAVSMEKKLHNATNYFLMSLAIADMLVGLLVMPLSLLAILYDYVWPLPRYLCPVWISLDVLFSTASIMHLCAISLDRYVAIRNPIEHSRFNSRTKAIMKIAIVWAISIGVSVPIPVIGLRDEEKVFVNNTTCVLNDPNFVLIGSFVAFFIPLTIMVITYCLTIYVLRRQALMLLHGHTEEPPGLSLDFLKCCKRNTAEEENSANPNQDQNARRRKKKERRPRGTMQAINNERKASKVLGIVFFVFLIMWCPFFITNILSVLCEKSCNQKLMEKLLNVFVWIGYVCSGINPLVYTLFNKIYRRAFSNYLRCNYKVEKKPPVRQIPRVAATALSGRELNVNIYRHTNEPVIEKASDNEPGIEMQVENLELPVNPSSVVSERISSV

[5] = target: 5-hydroxytryptamine receptor 2A (Homo sapiens, UniProt P28223); experiment: Displacement of [3H]ketanserin from human recombinant 5HT2A receptor expressed in CHO-K1 cells; type: cell-based
Chain of 5-hydroxytryptamine receptor 2A (P28223 whole entry): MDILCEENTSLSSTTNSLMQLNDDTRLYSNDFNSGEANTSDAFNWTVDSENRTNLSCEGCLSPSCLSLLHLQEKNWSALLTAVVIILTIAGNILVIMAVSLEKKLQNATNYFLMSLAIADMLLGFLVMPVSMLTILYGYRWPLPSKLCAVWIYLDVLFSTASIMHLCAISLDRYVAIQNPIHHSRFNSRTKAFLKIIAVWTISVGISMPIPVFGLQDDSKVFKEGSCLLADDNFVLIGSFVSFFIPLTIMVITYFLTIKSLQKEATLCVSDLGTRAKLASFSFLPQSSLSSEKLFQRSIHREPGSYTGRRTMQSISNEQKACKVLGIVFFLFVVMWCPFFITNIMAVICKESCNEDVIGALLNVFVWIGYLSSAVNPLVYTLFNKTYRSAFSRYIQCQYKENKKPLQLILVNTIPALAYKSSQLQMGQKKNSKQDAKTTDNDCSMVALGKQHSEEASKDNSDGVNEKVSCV

[6] = test system: Mus musculus; experiment: Toxicity in mouse assessed as induction of hypoactivity measured for 30 mins at 25 mg/kg, ip measured by spontaneous locomotor activity assay; type: organism-based; design: dose 25 mg/kg, route intraperitoneal; conditions: in vivo, 0.5 h
[7] = target: Voltage-gated inwardly rectifying potassium channel KCNH2 (Homo sapiens, UniProt Q12809); experiment: Inhibition of human ERG channel
Chain of Voltage-gated inwardly rectifying potassium channel KCNH2 (Q12809 whole entry): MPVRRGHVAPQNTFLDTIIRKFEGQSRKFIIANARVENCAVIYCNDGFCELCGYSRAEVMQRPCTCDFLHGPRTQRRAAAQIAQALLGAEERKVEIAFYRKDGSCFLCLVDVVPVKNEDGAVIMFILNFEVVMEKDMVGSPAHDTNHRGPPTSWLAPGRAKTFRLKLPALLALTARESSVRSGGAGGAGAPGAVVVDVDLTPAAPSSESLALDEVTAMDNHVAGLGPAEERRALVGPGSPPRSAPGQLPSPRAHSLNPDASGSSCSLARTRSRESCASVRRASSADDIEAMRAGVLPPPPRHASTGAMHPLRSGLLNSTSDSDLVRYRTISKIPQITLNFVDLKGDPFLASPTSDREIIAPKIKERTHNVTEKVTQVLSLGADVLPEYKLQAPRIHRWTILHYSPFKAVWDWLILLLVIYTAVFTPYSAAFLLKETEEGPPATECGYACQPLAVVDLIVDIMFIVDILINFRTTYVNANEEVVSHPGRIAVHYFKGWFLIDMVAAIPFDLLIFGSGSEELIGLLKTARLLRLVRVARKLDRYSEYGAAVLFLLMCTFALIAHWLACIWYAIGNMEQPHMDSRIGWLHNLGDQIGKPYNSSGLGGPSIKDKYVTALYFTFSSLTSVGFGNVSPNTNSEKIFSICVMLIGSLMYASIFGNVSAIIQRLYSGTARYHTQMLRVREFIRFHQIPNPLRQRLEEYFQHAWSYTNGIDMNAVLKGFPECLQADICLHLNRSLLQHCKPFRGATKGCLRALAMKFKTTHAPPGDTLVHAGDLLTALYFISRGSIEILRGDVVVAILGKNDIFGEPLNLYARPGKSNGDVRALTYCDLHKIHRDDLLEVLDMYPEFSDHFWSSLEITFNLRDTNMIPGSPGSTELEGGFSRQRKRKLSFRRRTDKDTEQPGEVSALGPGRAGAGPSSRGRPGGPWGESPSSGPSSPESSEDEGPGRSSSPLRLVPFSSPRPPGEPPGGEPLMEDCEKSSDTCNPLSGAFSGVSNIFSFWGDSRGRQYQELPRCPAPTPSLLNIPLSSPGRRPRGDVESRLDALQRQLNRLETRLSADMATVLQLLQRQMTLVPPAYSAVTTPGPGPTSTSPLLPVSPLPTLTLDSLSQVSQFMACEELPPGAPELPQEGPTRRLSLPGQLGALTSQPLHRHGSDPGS

[8] = target: Cytochrome P450 2D6 (Homo sapiens, UniProt P10635); experiment: Inhibition of CYP2D6; type: ADME
Chain of Cytochrome P450 2D6 (P10635 whole entry): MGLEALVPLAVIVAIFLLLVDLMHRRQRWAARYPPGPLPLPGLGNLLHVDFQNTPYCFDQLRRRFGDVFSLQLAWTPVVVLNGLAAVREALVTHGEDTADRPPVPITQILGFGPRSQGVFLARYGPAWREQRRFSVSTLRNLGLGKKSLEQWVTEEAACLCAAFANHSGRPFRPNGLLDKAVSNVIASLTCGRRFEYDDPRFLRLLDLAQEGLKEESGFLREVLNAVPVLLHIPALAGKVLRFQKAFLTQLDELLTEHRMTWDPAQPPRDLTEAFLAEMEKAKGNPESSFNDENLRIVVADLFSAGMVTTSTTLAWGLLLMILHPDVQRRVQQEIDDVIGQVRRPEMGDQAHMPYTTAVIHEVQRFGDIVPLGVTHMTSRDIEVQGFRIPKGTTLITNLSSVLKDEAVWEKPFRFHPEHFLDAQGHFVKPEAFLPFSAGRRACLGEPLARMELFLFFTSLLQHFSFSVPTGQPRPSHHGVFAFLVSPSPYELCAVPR

[9] = target: T2, Cytochrome P450 1A2 (Homo sapiens, UniProt P05177); experiment: Inhibition of CYP1A2; type: ADME
T2 sequence (P05177 whole entry): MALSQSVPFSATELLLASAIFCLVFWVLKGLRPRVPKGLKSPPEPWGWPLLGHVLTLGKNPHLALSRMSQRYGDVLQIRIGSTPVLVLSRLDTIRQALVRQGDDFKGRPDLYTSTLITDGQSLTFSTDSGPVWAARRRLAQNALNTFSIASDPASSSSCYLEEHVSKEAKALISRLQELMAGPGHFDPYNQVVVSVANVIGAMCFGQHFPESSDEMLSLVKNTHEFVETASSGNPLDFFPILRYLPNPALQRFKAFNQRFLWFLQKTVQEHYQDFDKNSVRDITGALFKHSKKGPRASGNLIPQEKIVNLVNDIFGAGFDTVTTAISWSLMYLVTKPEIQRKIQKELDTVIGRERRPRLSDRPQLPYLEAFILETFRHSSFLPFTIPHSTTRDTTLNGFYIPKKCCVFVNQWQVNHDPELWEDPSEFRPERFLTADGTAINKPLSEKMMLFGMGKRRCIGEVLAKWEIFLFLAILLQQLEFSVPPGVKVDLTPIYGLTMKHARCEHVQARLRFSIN

[10] = target: Cytochrome P450 3A4 (Homo sapiens, UniProt P08684); experiment: Inhibition of CYP3A4; type: ADME
Chain of Cytochrome P450 3A4 (P08684 whole entry): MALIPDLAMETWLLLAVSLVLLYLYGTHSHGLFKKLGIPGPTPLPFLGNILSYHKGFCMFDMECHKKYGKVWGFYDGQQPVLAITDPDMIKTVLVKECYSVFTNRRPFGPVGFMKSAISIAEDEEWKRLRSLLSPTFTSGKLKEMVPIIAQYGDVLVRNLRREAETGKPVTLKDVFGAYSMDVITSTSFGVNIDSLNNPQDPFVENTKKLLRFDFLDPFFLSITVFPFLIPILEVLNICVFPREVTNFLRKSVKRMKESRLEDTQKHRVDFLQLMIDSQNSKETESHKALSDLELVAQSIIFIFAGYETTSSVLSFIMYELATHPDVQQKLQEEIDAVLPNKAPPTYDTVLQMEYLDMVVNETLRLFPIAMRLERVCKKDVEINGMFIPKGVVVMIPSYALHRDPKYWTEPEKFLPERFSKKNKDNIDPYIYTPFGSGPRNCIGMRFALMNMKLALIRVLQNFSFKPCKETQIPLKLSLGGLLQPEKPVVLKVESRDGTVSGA

[11] = target: Cytochrome P450 2C9 (Homo sapiens, UniProt P11712); experiment: Inhibition of CYP2C9; type: ADME
Chain of Cytochrome P450 2C9 (P11712 whole entry): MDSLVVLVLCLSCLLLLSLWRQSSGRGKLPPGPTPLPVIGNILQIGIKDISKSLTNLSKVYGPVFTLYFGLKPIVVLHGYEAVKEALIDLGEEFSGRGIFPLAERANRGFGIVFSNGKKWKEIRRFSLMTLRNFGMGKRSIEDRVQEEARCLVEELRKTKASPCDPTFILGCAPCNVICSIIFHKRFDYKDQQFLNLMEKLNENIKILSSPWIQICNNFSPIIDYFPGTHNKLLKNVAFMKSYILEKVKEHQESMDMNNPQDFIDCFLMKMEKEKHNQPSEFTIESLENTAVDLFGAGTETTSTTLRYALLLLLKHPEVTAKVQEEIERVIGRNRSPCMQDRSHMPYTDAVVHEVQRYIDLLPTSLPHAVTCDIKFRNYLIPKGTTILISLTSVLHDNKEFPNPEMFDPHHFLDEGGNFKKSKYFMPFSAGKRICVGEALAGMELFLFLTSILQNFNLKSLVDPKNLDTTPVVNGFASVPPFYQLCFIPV

Compound	Activity [1]	pIC50 [2]	Activity [3]	pIC50 [4]	pIC50 [5]	Activity [6]	pIC50 [7]	pIC50 [8]	pIC50 [9]	pIC50 [10]	pIC50 [11]
Cc1cc(C(=O)NCCCN2CCN(c3cccc(Cl)c3Cl)CC2)nc(C)n1.Cl	Active	6.54	Non-toxic	6.21	6.78	–	–	–	–	–	–
COc1c(C)nc(C)nc1C(=O)NCCN1CCN(c2cccc(Cl)c2Cl)CC1.Cl	–	6.19	Non-toxic	6.87	6.58	Non-toxic	–	–	–	–	–
COc1c(C)nc(C)nc1C(=O)NCCCN1CCN(c2cccc(C)c2C)CC1.Cl	–	6.05	–	5.69	6.13	Toxic	–	–	–	–	–
Cc1nc(C(=O)NCCCN2CCN(c3cccc(Cl)c3Cl)CC2)cc(-c2ccccc2)n1	–	6.23	–	7.52	7.46	–	–	–	–	–	–
COc1c(C)nc(C)nc1C(=O)NCCN1CCN(c2cccc(C)c2C)CC1.Cl	–	5.68	Non-toxic	5.90	6.07	Non-toxic	–	–	–	–	–
CSc1nc(C)cc(C(=O)NCCCN2CCN(c3cccc(C)c3C)CC2)n1.Cl	Active	6.40	Non-toxic	5.93	7.27	Non-toxic	–	–	–	–	–
CSc1nc(C)cc(C(=O)NCCN2CCN(c3cccc(Cl)c3Cl)CC2)n1.Cl	Active	6.06	Non-toxic	7.09	7.26	Non-toxic	–	–	–	–	–
Cc1nc(C(=O)NCCCN2CCN(c3cccc(C)c3C)CC2)cc(C(C)C)n1.Cl	–	5.92	Non-toxic	5.81	6.31	Non-toxic	–	–	–	–	–
Cc1cc(C(=O)NCCCN2CCN(c3cccc(C)c3C)CC2)nc(C(C)(C)C)n1.Cl	–	6.27	Non-toxic	5.57	6.56	Non-toxic	–	–	–	–	–
Cc1cc(C(=O)NCCN2CCN(c3cccc(C)c3C)CC2)nc(C(C)(C)C)n1.Cl	–	5.20	Non-toxic	6.31	7.16	Non-toxic	–	–	–	–	–
Cc1nc(C(=O)NCCCN2CCN(c3cccc(C)c3C)CC2)cc(C(C)(C)C)n1.Cl	–	6.14	Non-toxic	6.24	6.34	Non-toxic	5.23	–	–	–	–
Cc1cc(C(=O)NCCCN2CCN(c3cccc(C)c3C)CC2)nc(C2CC2)n1.Cl	–	6.46	Non-toxic	5.93	6.59	Non-toxic	–	–	–	–	–
CSc1nc(C)cc(C(=O)NCCN2CCN(c3cccc(C)c3C)CC2)n1.Cl	Active	5.99	Non-toxic	6.83	7.33	Non-toxic	–	< 4.70	< 4.70	< 4.70	< 4.70
Cc1nc(C(=O)NCCCN2CCN(c3cccc(Cl)c3Cl)CC2)cc(C(C)C)n1.Cl	Active	6.19	Non-toxic	6.64	6.95	Non-toxic	5.27	–	–	–	–
